Where “and” joins values, the source holds several entries; their conditions need not be identical. Equal values may be shown once. Read-outs that look alike come from different tables or passages of the source. Bridge positions count the residues as written; N and C are the ends. Ends that are not written are not given here. Peptide text beside a SMILES is read from it. * marks the point of attachment. 5TAMRA = CN(C)c1ccc2c(c1)Oc1cc(N(C)C)ccc1C21OC(=O)c2cc(C(=O)*)ccc21

We go through four molecules from paper PMC12004451, “Characterization of the Two-Domain Peptide Binding Mechanism of the Human CGRP Receptor for CGRP and the Ultrahigh Affinity ssCGRP Variant” (Biochemistry, 2025).

For experiment [1], the target named is T1, CGRP receptor (Nluc-CLR:RAMP1) (Homo sapiens, UniProt O60894+Q16602).
T1 construct: N-terminally Nanoluciferase (NLuc)-tagged CLR (pcDNA3.1(+)sec/NanoLuc-GSGIS-CLR.23-461); Wild-type CLR and RAMP expression plasmids were obtained from cDNA.org; sec (vector secretion signal before NanoLuc) (N); expressed in transfected cells; host or cells: COS-7 cells, membrane preparation
Kind of experiment: nanoBRET competition association kinetics (Motulsky-Mahan). Type of experiment: binding. To be noted: for Kd: mean ± SEM, n=3, read-out: Kd calc (koff/kon). As for the experimental part:
Membrane preparation was performed as previously described.[29] COS-7 cells in ten […] plastic culture dishes (Corning; 430599) were transiently transfected with 2 μg NLuc-CLR, 2 μg RAMP1, and 46 μg empty pcDNA3.1(+) expression plasmids/dish with 75 μg Polyethylenimine (PEI)/dish. After 2 days, the cells were washed with PBS and harvested with ice-cold PBS + 5 mM EDTA. The cells were pelleted in a centrifuge at 1000g for 5 min at 4 °C and resuspended in a hypotonic buffer (25 mM NaHEPES pH 7.5, 2 mM MgCl2, 1 mM EDTA, and 1× EDTA-free PIERCE protease inhibitor tablet). After resuspension, cells were homogenized with an Ultra Turrax for 30 s at 10,000 rpm followed by a 10 min incubation. Cell debris was pelleted at 800g for 10 min and the supernatant was transferred to ultracentrifuge tubes and centrifuged at 100,000g for 1 h. Membranes were resuspended in a wash buffer (25 mM NaHEPES pH 7.5, 250 mM NaCl, 2 mM MgCl2, 1 mM EDTA, and 1× protease inhibitor tablet). The homogenization and ultracentrifugation were repeated once more and the membranes were resuspended in storage buffer (25 mM NaHEPES pH 7.5, 25 mM NaCl, 2 mM MgCl2, 10% v/v glycerol, and 1× protease inhibitor tablet). The resuspended membranes were homogenized, aliquoted, and flash frozen in liquid nitrogen for storage at −80 °C. Total protein was quantitated using the DC protein assay (BioRad) per the manufacturer’s instructions. The concentration of NLuc-CLR was determined by comparing the membrane prep luminescence to a standard curve using purified NLuc enzyme (Promega; G9711). The total protein concentration was 0.91 mg/mL and the NLuc-CLR was 7.35 nM.
Emission at 460 and 610 nm were measured every 16 s for 45 min with the PolarSTAR Omega plate reader mixing 300 rpm for 1 s before each cycle. The curves were fit using GraphPad Prism to the Motulsky-Mahan competition kinetics equation[31] modified to account for the signal decay component as previously described[32] to determine the kon and koff of the competitor. The Kd (koff/kon), half-life (ln 2/koff), and residence time (1/koff) values were calculated.

Experiment [2] concerns the target T1, CGRP receptor (Nluc-CLR:RAMP1). Kind of experiment: nanoBRET equilibrium competition binding, Nluc-CLR:RAMP1 membranes. To be noted: room temperature, Cheng-Prusoff, mean ± SEM, n=3. As for the experimental part:
After 2 days, the cells were washed with PBS and harvested with ice-cold PBS + 5 mM EDTA. The cells were pelleted in a centrifuge at 1000g for 5 min at 4 °C and resuspended in a hypotonic buffer (25 mM NaHEPES pH 7.5, 2 mM MgCl2, 1 mM EDTA, and 1× EDTA-free PIERCE protease inhibitor tablet). After resuspension, cells were homogenized with an Ultra Turrax for 30 s at 10,000 rpm followed by a 10 min incubation. Cell debris was pelleted at 800g for 10 min and the supernatant was transferred to ultracentrifuge tubes and centrifuged at 100,000g for 1 h. Membranes were resuspended in a wash buffer (25 mM NaHEPES pH 7.5, 250 mM NaCl, 2 mM MgCl2, 1 mM EDTA, and 1× protease inhibitor tablet). The homogenization and ultracentrifugation were repeated once more and the membranes were resuspended in storage buffer (25 mM NaHEPES pH 7.5, 25 mM NaCl, 2 mM MgCl2, 10% v/v glycerol, and 1× protease inhibitor tablet). The resuspended membranes were homogenized, aliquoted, and flash frozen in liquid nitrogen for storage at -80 °C. Total protein was quantitated using the DC protein assay (BioRad) per the manufacturer's instructions. The concentration of NLuc-CLR was determined by comparing the membrane prep luminescence to a standard curve using purified NLuc enzyme (Promega; […]). […] The Cheng-Prusoff correction[30] was used to calculate the Ki from the IC50.
Background: In BRET a luciferase serves as donor, and the signal depends on an acceptor being close.

For experiment [3] the target is unchanged. Kind of experiment: nanoBRET association kinetics of TAMRA probes. Type of experiment: binding. As for the experimental part:
After 2 days, the cells were washed with PBS and harvested with ice-cold PBS + 5 mM EDTA. The cells were pelleted in a centrifuge at 1000g for 5 min at 4 °C and resuspended in a hypotonic buffer (25 mM NaHEPES pH 7.5, 2 mM MgCl2, 1 mM EDTA, and 1× EDTA-free PIERCE protease inhibitor tablet). After resuspension, cells were homogenized with an Ultra Turrax for 30 s at 10,000 rpm followed by a 10 min incubation. Cell debris was pelleted at 800g for 10 min and the supernatant was transferred to ultracentrifuge tubes and centrifuged at 100,000g for 1 h. Membranes were resuspended in a wash buffer (25 mM NaHEPES pH 7.5, 250 mM NaCl, 2 mM MgCl2, 1 mM EDTA, and 1× protease inhibitor tablet). The homogenization and ultracentrifugation were repeated once more and the membranes were resuspended in storage buffer (25 mM NaHEPES pH 7.5, 25 mM NaCl, 2 mM MgCl2, 10% v/v glycerol, and 1× protease inhibitor tablet). The resuspended membranes were homogenized, aliquoted, and flash frozen in liquid nitrogen for storage at -80 °C. Total protein was quantitated using the DC protein assay (BioRad) per the manufacturer's instructions. The concentration of NLuc-CLR was determined by comparing the membrane prep luminescence to a standard curve using purified NLuc enzyme (Promega; […]). […] Costar 3912). […] The observed association rates (kobs) were plotted against probe concentration and the data was analyzed by linear regression. The kon and koff were obtained as the slope and y-intercept, respectively.

The mark [4] stands for this setting: competition against 10 nM CGRP(27-37)*-TAMRA probe, 2 h, read-out: Ki.

For “FVPTNVGSKAF-NH2 [CGRP(27-37), reference compound]”, in experiment [1], the koff (usually the rate constant with which the complex falls apart) was 0.203 s⁻¹ and the kon (commonly the second-order rate constant of association) was 195000 M⁻¹ s⁻¹. Besides, in experiment [1] (from competition kinetics), the “Residence time (1/koff)” value turned out to be 0.087 ± 0.015 min, the residence time is approximately 0.0833 min, the “t1/2 (ln 2/koff)” value was found to be 0.06 ± 0.01 min and the Kd is 1040 nM. Moreover, in experiment [2] (setting [4]), the inhibition constant Ki (in general, the equilibrium dissociation constant of an inhibitor or competing ligand from its target) is 1050 nM.

As for FVPTDVGPWSF-NH2 [ssCGRP(27-37)], in experiment [1], the koff was 0.00222 s⁻¹ and the kon is 3.22e+06 M⁻¹ s⁻¹. In addition, in experiment [1] (from competition kinetics), the “Residence time (1/koff)” value is 7.57 ± 0.27 min and ~8 min; the “t1/2 (ln 2/koff)” value stood at 5.24 ± 0.18 min; the Kd is 0.73 nM. Further, the Ki in experiment [2] (setting [4]) was 0.527 ± 0.039 nM.

In the case of `CC(C)C[C@H](NC(=O)CNC(=O)[C@H](C)NC(=O)[C@H](CC(C)C)NC(=O)[C@H](CCCNC(=N)N)NC(=O)[C@H](Cc1c[nH]cn1)NC(=O)[C@@H](NC(=O)[C@@H](NC(=O)[C@@H]1CSSC[C@H](NC(=O)[C@H](C)N)C(=O)N[C@@H](CC(=O)O)C(=O)N[C@@H]([C@@H](C)O)C(=O)N[C@@H](C)C(=O)N[C@@H]([C@@H](C)O)C(=O)N1)C(C)C)[C@@H](C)O)C(=O)N[C@@H](CC(C)C)C(=O)N[C@@H](CO)C(=O)N[C@@H](CCCNC(=N)N)C(=O)N[C@@H](CO)C(=O)NCC(=O)NCC(=O)N[C@H](C(=O)N[C@H](C(=O)N[C@@H](CCCCN)C(=O)N[C@@H](CC(N)=O)C(=O)N[C@@H](CC(N)=O)C(=O)N[C@@H](Cc1ccccc1)C(=O)N[C@H](C(=O)N1CCC[C@H]1C(=O)N[C@H](C(=O)N[C@@H](CC(=O)O)C(=O)N[C@H](C(=O)NCC(=O)N1CCC[C@H]1C(=O)N[C@@H](Cc1c[nH]c2ccccc12)C(=O)N[C@@H](CO)C(=O)N[C@@H](Cc1ccccc1)C(N)=O)C(C)C)[C@@H](C)O)C(C)C)C(C)C)C(C)C` [ssCGRP(1-37)] (H-ACDTATCVTHRLAGLLSRSGGVVKNNFVPTDVGPWSF-NH2; disulfide 2-7), the inhibitory constant (Ki) in experiment [2] (G protein coupled state (30 μM sumo-miniGs), 3 nM AM2/IMD(8-47)-TAMRA probe, 8 h, read-out: Ki + mGs) is 0.19 ± 0.01 nM; in experiment [2] (G protein uncoupled state (50 μM GTPγS), 30 nM AM2/IMD(8-47)-TAMRA probe, 8 h, read-out: Ki + GTPγS), 0.248 ± 0.008 nM.

As to `CC(C)[C@H](NC(=O)[C@H](CC(=O)O)NC(=O)[C@@H](NC(=O)[C@@H]1CCCN1C(=O)[C@@H](NC(=O)[C@@H](N)Cc1ccccc1)C(C)C)[C@@H](C)O)C(=O)NCC(=O)N1CCC[C@H]1C(=O)N[C@@H](CCCCNC(=O)c1ccc2c(c1)C(=O)OC21c2ccc(N(C)C)cc2Oc2cc(N(C)C)ccc21)C(=O)N[C@@H](CO)C(=O)N[C@@H](Cc1ccc(O)cc1)C(N)=O` [CGRP(27-37)*-TAMRA, αCGRP(27-37) N31D/S34P/K35-TAMRA/A36S/F37Y] (H-FVPTDVGPK(5TAMRA)SY-NH2; N-terminus assumed), the on-rate constant (kon) in experiment [3] (association kinetics, 25 °C, kobs vs probe concentration, slope of linear regression, fit of first 10 min (full 1 h 15 min for ssCGRP(8-37)-TAMRA), mean ± SEM, n=3) is 2.75e+06 M⁻¹ s⁻¹. For the same molecule, the koff in experiment [3] (association kinetics, 25 °C, y-intercept of kobs vs probe concentration, mean ± SEM, n=3) was 0.0635 s⁻¹. In experiment [3] (from association kinetics), this molecule registered a half-life of 11 s.
